Ends that are not written are not given here.
What was measured:
[1] = system: J774 mouse macrophage cells (ABCA1); experiment: ABCA1 mediated cholesterol efflux; assay type: cell-based; details: peptide samples run at 30 μg/ml
Text: (§1) The methods employed in this study have been described in U.S. Pat. Nos. 7,029,863, 7,060,452, U.S. Patent Application Publication No. 2005/0191715, and in Moya et al., Arteriosclerosis & Thrombosis 1994:14:1056-1065 and Liu et al., J. Biol. Chem., 2003:278(44), 42976-42984. SR-B1 mediated cholesterol efflux is examined in FU5AH rat hepatoma cells and ABCA1 mediated cholesterol efflux is examined in J774 mouse macrophage cells as described in these references.

[2] = system: CD11b; experiment: CD11b expression in stimulated monocytes by flow cytometry; assay type: cell-based; details: human monocytes, 1 μmol/L PMA, 20 μg/ml apoA-1 or peptide
Method: Monocyte Isolation Peripheral whole blood (PWB) is drawn from healthy consenting individuals into syringes containing sodium citrate (final concentration—19.2 mM). Resting human monocytes are isolated from PWB by density centrifugation with Lymphoprep (Axis Shield). Mononuclear cells (MNCs) are collected and monocytes are further separated to purity using the Dynal negative isolation kit (Invitrogen). Monocytes are resuspended in phosphate buffered saline (PBS) and cell number is determined counting cell suspension on an automated hematology analyzer (Sysmex, KX-21N, USA). Purification of HDL and apoA-1 Human plasma apoA-1 is isolated as previously described and the purity determined using total mass spectrometry. Flow Cytometry 100 μL of monocytes are stimulated with either 1 μmol/L phorbol-myristate-acetate (PMA) or 1 μg/ml lipopolysaccharide (LPS) (Sigma, Australia) in the presence or absence of apoA-1 (20 μg/ml), or 20 μg/ml of the test peptides of the present invention. SEQ ID NOs: 72, 80, 89, 354, 355 and 372 are also tested individually. The cells are incubated with the FITC conjugated antibody to either the active epitope of CD11b (eBiosciences, USA, Clone CBRM1/5) or total CD11b (Serotec, USA, Clone ICRF44) for 15 min at 37° C. Cells are then fixed with 4% paraformaldehyde. Samples are controlled for by using the appropriately matched isotype matched negative control (FITC-anti-mouse IgG) (Serotec, USA, Clone W3/25). CD11b expression is measured by flow cytometry using FACS Calibur (Becton Dickinson). Analysis is conducted using the Cell Quest Pro software. Statistical Analysis Values are presented as the mean ±SD or percentage of control ±SD. FACS results are analyzed for statistical significance using one-way ANOVA followed by Bonferroni post-hoc test. Significance is accepted at P<0.05. […] The combined effects of increasing cholesterol efflux and decreasing inflammation indicate that the peptides of the present invention effectively mimic the function of Apo AI and will decrease atherosclerosis.

[3] = system: atherosclerotic coronary artery; experiment: Coronary atherosclerosis by IVUS in individuals with acute coronary syndrome; assay type: in vivo, human; details: iv weekly for 5 to 8 weeks, on stable hypolipidemic drug therapy
Text: Individuals with acute coronary syndrome and documented atherosclerosis have a cardiac catherization with intravascular ultrasound (IVUS) to document coronary atherosclerosis of 20 to 50% obstruction in the target artery. Each individual is on stable hypolipidemic drug therapy and receives an acceptable dose of a peptide of the present invention and/or an associated fragment iv weekly for a period of 5 to 8 weeks. A repeat IVUS measurement is made at the end of the treatment period to assess the effect of the peptide infusion on coronary atherosclerosis in the target vessel.

[4] = system: apoE knockout and LDL-receptor knockout mice; experiment: Aortic atherosclerosis after ip peptide injection in ApoE knockout and LDL receptor knockout mice; assay type: in vivo, mouse; details: 30 mg/kg ip three times per week, 4-5 or 8-10 weeks; 'proposed studies'
Method: ApoE knockout and LDL receptor knockout mice, two well established animal models for the study of atherosclerosis, are injected with either saline as control or the synthetic peptides of the present invention to ascertain if these peptides can be used to increase HDL and decrease atherosclerosis.
The mice receive 3 injections per week for either […] or 8-10 weeks. After the completion of the injection, the amount of hardening of the arteries or atherosclerosis is determined in the control injected animals and peptide injected animals to determine if the injections of the synthetic peptide decreased development of atherosclerosis.
The proposed studies test if intraperitoneal infusions of the apoA-I mimetic peptides of the present invention result in decreased aortic atherosclerosis in apoE and LDL receptor knockout mice, two well established mouse models of atherosclerosis.
Four to six week old C57B1/6 mice, apoE knockout (JAX 2052) and LDL-receptor knockout (JAX 2207) mice, all in the C57B1/6 background, are obtained from Jackson Laboratories. During the entire study, C57B1/6 and apoE knockout mice are maintained on a regular chow diet (0.02% cholesterol, 3% fat) and LDL-receptor mice are maintained on a Western diet (TD88137; Harlan Teklad; Madison, Wis. —containing 0.20% cholesterol and 21% fat).
In the first study (Infusion Study A), C57B1/6 mice as well as apoE knockout and LDL receptor knockout mice are injected by the intraperitoneal (ip) route or intravenous (iv) route with synthetic peptides of the present invention mimetic (30 mg/kg) on up to four different occasions two weeks apart. To evaluate changes in the plasma lipid and lipoprotein profile associated with injection of the synthetic peptide, blood for lipid analyses is obtained before and at 2, 4, 6, 24 and 48 hours after peptide injection. At the end of the study the animals are sacrificed.
For infusion studies B and C, mice are injected ip with either placebo or a synthetic peptide of the present invention (30 mg/kg) three times per week for either 4 to 5 weeks (Infusion Study B) or 8 to 10 weeks (Infusion Study C). Blood for lipid and lipoprotein analyses is obtained at the beginning of the study (day 0) and every two weeks after placebo/peptide injection and at the completion of the study. At the completion of the study (4 to 5 weeks for Infusion Study B and 8 to 10 weeks for Infusion Study C), the animals are sacrificed, organs harvested for analyses of cholesterol content and for aortic atherosclerosis.
For Infusion Study A, 5 four to six week old C57B1/6, apoE knockout (JAX 2052) and LDL receptor knockout (JAX 2207) control mice receive ip or iv injections of the synthetic peptide of the present invention for up to four times two weeks apart. The sequence of procedures for this study is as follows: • 1) Mice are first anaesthetized by using 1-3% isoflurane by inhalation prior to each ip injection to insure appropriate and complete delivery of placebo/peptide. • 2) Mice are injected with either placebo (0.2 ml saline) or apoA-I synthetic peptide (30 mg/kg in 0.2 ml saline) via either the intraperitoneal or intravenous route. • 3) In order to evaluate changes in the plasma lipids and lipoproteins in the time-frame between injections, each mouse in this study group is bled from the retro-orbital sinus following administration of a topical anesthesia. before and at 2, 4, 6, 24 and 48 hours after the peptide injection. No more than 300 ul blood is drawn during this 48 hour period. • 4) At the end of infusion study A all mice are sacrificed by using Avertin (2.5%, 0.011 ml/gm, ip) or ketamine (80 ug/gm, ip). […]

[5] = system: FU5AH rat hepatoma cells (SR-B1); experiment: SR-B1 mediated cholesterol efflux; assay type: cell-based; details: peptide samples run at 30 μg/ml
Text: as §1

Row | Substance | efflux of cholesterol from J774 macrophage cells (ABCA1 pathway) [1] | PMA induced CD11b expression [2] | plaque in the atherosclerotic coronary artery (IVUS) [3] | aortic atherosclerosis compared to controls [4] | effect on cholesterol efflux from the Fu5AH cells (SRB1 pathway) [5]
1 | Ac-Gly Glu Glu Met Arg Asp Arg Ala Arg Ala His Val Asp Ala Leu Arg Thr His Ala Lys Pro Val Leu Leu Glu Ser Phe Lys Val Ser Phe Leu Ser Ala Leu Glu Glu Tyr Thr Lys Lys-NH2 (Ac-GEEMRDRARAHVDALRTHAKPVLLESFKVSFLSALEEYTKK-NH2) [SEQ ID NO:354] | stimulate efflux of cholesterol | significantly reduce PMA induced CD11b expression | reduce plaque in the atherosclerotic coronary artery | decrease aortic atherosclerosis compared to controls | negligible or no effect
2 | Ac-Leu Glu Ser Ala Lys Val Ser Ala Leu Ser Ala Leu Glu Glu Ala Thr Lys Lys Ala Lys Pro Val Leu Leu Glu Ser Phe Lys Val Ser Phe Leu Ser Ala Leu Glu Glu Tyr Thr Lys Lys-NH2 (Ac-LESAKVSALSALEEATKKAKPVLLESFKVSFLSALEEYTKK-NH2) [SEQ ID NO:372] | stimulate efflux of cholesterol | significantly reduce PMA induced CD11b expression | reduce plaque in the atherosclerotic coronary artery | decrease aortic atherosclerosis compared to controls | negligible or no effect
3 | Ac-Ser Asp Glu Leu Arg Gln Arg Leu Ala Ala Arg Leu Glu Ala Leu Lys Glu Asn Ala Lys Pro Val Leu Leu Glu Ser Phe Lys Val Ser Phe Leu Ser Ala Leu Glu Glu Tyr Thr Lys Lys-NH2 (Ac-SDELRQRLAARLEALKENAKPVLLESFKVSFLSALEEYTKK-NH2) [SEQ ID NO:355] | stimulate efflux of cholesterol | significantly reduce PMA induced CD11b expression | reduce plaque in the atherosclerotic coronary artery | decrease aortic atherosclerosis compared to controls | negligible or no effect
4 | GEEMRDRARAHVDALRTHAKPVLLESFKVSFLSALEEYTKK [SEQ ID NO:72] | stimulate efflux of cholesterol | significantly reduce PMA induced CD11b expression | reduce plaque in the atherosclerotic coronary artery | decrease aortic atherosclerosis compared to controls | negligible or no effect
5 | LESAKVSALSALEEATKKAKPVLLESFKVSFLSALEEYTKK [SEQ ID NO:89] | stimulate efflux of cholesterol | significantly reduce PMA induced CD11b expression | reduce plaque in the atherosclerotic coronary artery | decrease aortic atherosclerosis compared to controls | negligible or no effect
6 | SDELRQRLAARLEALKENAKPVLLESFKVSFLSALEEYTKK [SEQ ID NO:80] | stimulate efflux of cholesterol | significantly reduce PMA induced CD11b expression | reduce plaque in the atherosclerotic coronary artery | decrease aortic atherosclerosis compared to controls | negligible or no effect

Source: US20080138284A1, “Novel Peptides That Promote Lipid Efflux” (Lipid Sciences, Inc., priority 2006, published 2008)
